What all share (assay): NCI tumour cell line growth inhibition, 48 h
Assay [1] concerns A549.
The test system of assay [2] is CCRF-CEM.
Assay [3] concerns HCT-116.
Assay [4] has as its system HL-60.
In assay [5] the test system is HT-29.
For assay [6], the system named is IGROV-1.
Assay [7] relates to NCI-H522.
Assay [8] deals with OVCAR-4.
Assay [9] deals with OVCAR-5.
In assay [10] the test system is SK-MEL-28.
Assay [11] has as its system SK-MEL-5.
Assay [12] deals with SN12C.
The subject of assay [13] is SNB-75.
Assay [14] concerns U-251.
For assay [15], the system named is DU-145.
Assay [16] deals with Hs-578T.
Assay [17] relates to MCF7.
In assay [18] the test system is MDA-MB-231.
Assay [19] concerns MDA-MB-435.

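Tested at 5 concentrations; 48 h exposure; 96-well plates; endpoints linearly interpolated, else capped at highest concentration. The concentration for 50% growth inhibition is given as GI50.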 Activity calls are given as the source filed them. No stated cut-off is given here; in the data, active = GI50 up to about 1.1 µM and inactive = higher.

Regarding `Cc1cccc(C(C)C)c1NC(=O)C(=O)CC(=O)c1c(C)[n+]([O-])c2ccccc2[n+]1[O-]`, the GI50 in assay [1] is 36.7 µM (inactive); in [2], 32.2 µM (inactive); in [3], 32.1 µM (inactive); in [4] it was 41.2 µM (inactive); in assay [5], 34.4 µM (inactive); in assay [6], 30.2 µM (inactive). Moreover, the GI50 in [7] is 21.9 µM (inactive); in assay [8], 25.4 µM (inactive); in assay [9], 45.9 µM (inactive); in assay [10] it was 36.1 µM (inactive); in [11], 34 µM (inactive); in [12], 30.6 µM (inactive). Also, the values for the GI50 in assay [13] and in assay [14] were 28.5 µM (inactive) and 34.1 µM (inactive), respectively.
Turning to `C/C=C1/CC(C(=O)OC)N(C(=O)OCc2ccccc2)C1=S` (configuration not stated), the GI50 in assay [1], in assay [15], in [3], in assay [5], in assay [16] and in assay [6] was > 100 µM (inactive) in each case. The GI50 in assay [17], in [18], in assay [19], in [7], in [8] and in assay [9] was > 100 µM (inactive) throughout. In addition, the GI50 in assay [10], in [11], in [13] and in assay [14] was > 100 µM (inactive) each time.
For the compound `C#CCN(N=O)C(=O)NCCCCC(NC(=O)OCc1ccccc1)C(=O)OCc1ccccc1` (configuration not stated), the GI50 in assay [2] is 19.3 µM (inactive); in [3], 32.7 µM (inactive); in assay [4] it was 29.9 µM (inactive); in assay [5], 62.4 µM (inactive); in assay [6] it was 76 µM (inactive); in [7], 15.3 µM (inactive). For the same compound, the GI50 in assay [8] was > 100 µM (inactive); in assay [9], > 100 µM (inactive); in assay [10] it was 49.5 µM (inactive); in assay [11], 62.4 µM (inactive); in [12], 37.8 µM (inactive); in assay [13] it was 46.3 µM (inactive). In addition, the GI50 in assay [14] is 48.9 µM (inactive).
Consider `CCOC(=O)N/N=C(\Cc1ccc([N+](=O)[O-])cc1)OCC`, for which the GI50 in assay [1], in [2], in assay [15], in assay [3], in [5] and in [6] was > 100 µM (inactive) throughout. For the same compound, the GI50 in assay [17], in assay [18], in assay [19], in [7], in assay [8] and in assay [9] was > 100 µM (inactive) each time. Further, the GI50 in assay [11], in [12], in [13] and in [14] was > 100 µM (inactive) each time.
With `O=c1[nH]c(=O)n(COCc2ccccc2)c2ccc(Br)cc12`, the GI50 in [1], in assay [2], in [15], in [3], in [4] and in assay [5] was > 100 µM (inactive) throughout. Moreover, the GI50 was > 100 µM (inactive) in [6]; > 100 µM (inactive) in [17]; > 100 µM (inactive) in [18]; > 100 µM (inactive) in [19]; 60.8 µM (inactive) in assay [8]; > 100 µM (inactive) in [9]. The GI50 in assay [10] was > 100 µM (inactive); in assay [11], 99.3 µM (inactive); in [12] it was > 100 µM (inactive); in assay [13], 43.4 µM (inactive); in assay [14] it was > 100 µM (inactive).
Take `NC1=C2C(Br)=CN([C@@H]3O[C@H](CO)[C@@H](O)[C@@H]3O)C2C(=O)N=N1` (some centres not stated): the GI50 is 2.67 µM (inactive) in assay [1]; 0.526 µM (active) in assay [2]; 1.82 µM (inactive) in assay [3]; 0.223 µM (active) in assay [4]; 2.42 µM (inactive) in assay [5]; 3.99 µM (inactive) in assay [6]. The GI50 is 6.05 µM (inactive) in assay [7]; 2.44 µM (inactive) in assay [8]; 2.28 µM (inactive) in [9]; 7.73 µM (inactive) in assay [10]; 11.3 µM (inactive) in assay [11]; 1.64 µM (inactive) in assay [12]. Further, the values for the GI50 in assay [13] and in assay [14] were 3.78 µM (inactive) and 8.79 µM (inactive), respectively.
On to `COc1cc2c(oc(=O)c3c4occc4cc(OC)c23)c2cccc(O)c12`, for which the GI50 in assay [1], in assay [2], in assay [3], in [4], in [5] and in assay [6] was > 100 µM (inactive) in each case. In addition, the GI50 in [7], in assay [8], in assay [9], in assay [10], in [11] and in [12] was > 100 µM (inactive) each time. In addition, the GI50 in assay [13] was 83.6 µM (inactive); in [14], > 100 µM (inactive).
Consider `Cc1noc2cccc(O)c12`, for which the GI50 in [1], in [2], in assay [3], in assay [4], in assay [5] and in [6] was > 100 µM (inactive) in each case. In addition, the GI50 in assay [7], in assay [8], in assay [9], in assay [10], in [11] and in assay [12] was > 100 µM (inactive) each time. The GI50 in [13] and in [14] was > 100 µM (inactive) each time.
Take `C/C(CC(=O)Nc1cccc(C)c1C)=N\NC(N)=S`: the GI50 in [1] was > 100 µM (inactive); in assay [2] it was 74.3 µM (inactive); in [3], 88.7 µM (inactive); in [4], > 100 µM (inactive); in assay [5], > 100 µM (inactive); in assay [6], > 100 µM (inactive). In addition, the GI50 in [7], in assay [8], in assay [9], in assay [10], in assay [11] and in assay [12] was > 100 µM (inactive) throughout. Moreover, the GI50 in assay [13] and in [14] was > 100 µM (inactive) in each case.

For the origin of these results see ChEMBL document CHEMBL1201862, “PubChem BioAssay data set” (2004).
